Measured values published in patent US12583866B2, “Pyrido[2,3-b][1,4]oxazines or tetrahydropyrido[2,3-b][1,4]oxazepines as IAP antagonists” (BEIGENE, LTD., priority 2020, dated 2026).

Assays:
[1] = target: T1, recombinant human cIAP1-BIR3 protein (Homo sapiens, UniProt Q13490); assay: Recombinant human c-IAP1-BIR3 biochemical assay (HTRF, peptide displacement); conditions: 1.2 nM cIAP1-BIR3, 3 nM AbuRPF-K(5-Fam)-NH2 peptide, read-out: Protein binding IC50 (nM) c-IAP1
T1 construct: recombinant human cIAP1-BIR3 protein; purchased Reaction biology APT-11-370
T1 sequence (Q13490 253-363 limits assumed): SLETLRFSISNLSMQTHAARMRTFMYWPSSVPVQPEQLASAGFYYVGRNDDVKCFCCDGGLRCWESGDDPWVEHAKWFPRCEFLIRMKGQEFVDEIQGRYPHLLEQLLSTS
Summary of the method: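 HTRF peptide displacement: after 1 h compound pre-incubation (max 10 uM, 4-fold dilutions, 10 points) with 1.2 nM protein in HEPES pH 7.5 buffer, 3 nM 5-Fam-labelled AbuRPF-K peptide and Tb-anti-6His were each added for 1 h at room temperature. Inhibition taken from 520/490 nm ratio, fitted four-parameter logistic for IC50.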

[2] = target: T2, recombinant human cIAP2-BIR3 protein (Homo sapiens, UniProt Q13489); assay: Recombinant human c-IAP2-BIR3 biochemical assay (HTRF, peptide displacement); conditions: 3.7 nM cIAP2-BIR3, 3.7 nM AbuRPF-K(5-Fam)-NH2 peptide, read-out: Protein binding IC50 (nM) c-IAP2
T2 construct: recombinant human cIAP2-BIR3 protein; purchased Reaction biology APT-11-372
T2 sequence (Q13489 238-349 limits assumed): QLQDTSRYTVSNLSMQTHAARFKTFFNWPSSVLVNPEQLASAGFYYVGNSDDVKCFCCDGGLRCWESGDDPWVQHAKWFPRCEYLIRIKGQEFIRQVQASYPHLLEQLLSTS
Summary of the method: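 HTRF peptide-displacement readout (ex337, em520/490 ratio) after sequential 1 h room-temperature steps: compound with 3.7 nM protein, then 3.7 nM 5-Fam-labelled AbuRPF peptide, then Tb-cryptate anti-6His antibody. Buffer pH 7.5 HEPES with NaCl, Tween-20, DTT; 10-point 4-fold dilutions from 10 uM; four-parameter logistic IC50.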

[3] = target: T3, recombinant human XIAP-BIR3 protein (Homo sapiens, UniProt P98170); assay: Recombinant human XIAP-BIR3 biochemical assay (HTRF, peptide displacement); conditions: 3.7 nM XIAP-BIR3, 7.6 nM AbuRPF-K(5-Fam)-NH2 peptide, read-out: Protein binding IC50 (nM) XIAP
T3 construct: recombinant human XIAP-BIR3 protein; purchased Reaction biology APT-11-374
T3 sequence (P98170 241-356 limits assumed): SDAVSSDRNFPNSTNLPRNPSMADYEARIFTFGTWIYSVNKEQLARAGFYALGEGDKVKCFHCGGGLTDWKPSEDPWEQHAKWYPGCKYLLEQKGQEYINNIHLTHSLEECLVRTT
Summary of the method: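 HTRF peptide displacement with 7.6 nM 5-Fam-labelled AbuRPF peptide, anti-6His Tb donor and 3.7 nM recombinant XIAP-BIR3. Protein and compound (10-point, 4-fold from 10 µM) were preincubated 1 h RT in HEPES pH 7.5 buffer before each addition, each 1 h. IC50 by four-parameter fit of the 520/490 nm ratio.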

Row | IC50 [1] [nM] | IC50 [2] [nM] | IC50 [3] [nM] | SMILES
1 | 0.25 | 0.36 | 5.4 | C[C@@H]1CN(CC(=O)N2c3cc(Cc4ccc(F)cc4)c(-c4ccc(F)cc4)nc3OC[C@@H]2C)[C@@H](CN2[C@H](C)COC[C@H]2C)CN1 [Compound 113]
2 | 0.11 | 0.24 | 12 | C[C@@H]1CN(CC(=O)N2c3cc(Cc4ccc(F)cc4)cnc3OC[C@@H]2COc2ccccc2)[C@@H](CN2CCOC[C@H]2C)CN1 [Compound 41]
3 | 1.3 | 1.9 | 34 | C[C@@H]1CN(CC(=O)N2c3cc(Cc4ccc(F)cc4)c(CO)nc3OC[C@@H]2C)[C@@H](CN2CCOC[C@H]2C(F)F)CN1 [Compound 55]
4 | 0.15 | 0.27 | 28 | CC(C)OC[C@H]1COc2ncc(Cc3ccc(F)cc3)cc2N1C(=O)CN1C[C@@H](C)NC[C@@H]1CN1[C@H](C)COC[C@H]1C [Compound 39, 2-((2R,5R)-2-(((3R,5R)-3,5-dimethylmorpholino)methyl)-5-methylpiperazin-1-yl)-1-((S)-7-(4-fluorobenzyl)-2-(isopropoxymethyl)-2,3-dihydro-1H-pyrido[2,3-b][1,4]oxazin-1-yl)ethan-1-one]
5 | 1 | 2.9 | 45 | C[C@@H]1CN(CC(=O)N2CCOc3nc(CO)c(Cc4ccc(F)cc4)cc32)[C@@H](CN2CCOC[C@H]2C)CN1 [Compound 8, 1-(7-(4-fluorobenzyl)-6-(hydroxymethyl)-2,3-dihydro-1H-pyrido[2,3-b][1,4]oxazin-1-yl)-2-((2R,5R)-5-methyl-2-(((R)-3-methylmorpholino)methyl)piperazin-1-yl)ethan-1-one]
6 | 0.74 | 1.8 | 47 | CC(C)C[C@H]1COc2ncc(Cc3ccc(F)cc3)cc2N1C(=O)CN1C[C@@H](C)NC[C@@H]1CN1CCOC[C@H]1C [Compound 33]
7 | 0.33 | 0.94 | 16.9 | C[C@@H]1CN(CC(=O)N2c3cc(Cc4ccc(F)cc4)c(N4CCOCC4)nc3OC[C@@H]2C)[C@@H](CN2[C@H](C)COC[C@H]2C)CN1 [Compound 106, 2-((2R,5R)-2-(((3R,5R)-3,5-dimethylmorpholino)methyl)-5-methylpiperazin-1-yl)-1-((S)-7-(4-fluorobenzyl)-2-methyl-6-morpholino-2,3-dihydro-1H-pyrido[2,3-b][1,4]oxazin-1-yl)ethan-1-one]
8 | 0.26 | 0.62 | 14 | CC[C@H]1COc2ncc(Cc3ccc(F)cc3)cc2N1C(=O)CN1C[C@@H](C)NC[C@@H]1CN1CCOC[C@H]1C [Compound 28, 1-((S)-2-ethyl-7-(4-fluorobenzyl)-2,3-dihydro-1H-pyrido[2,3-b][1,4]oxazin-1-yl)-2-((2R,5R)-5-methyl-2-(((R)-3-methylmorpholino)methyl)piperazin-1-yl)ethan-1-one]
9 | 0.3 | 0.67 | 9.2 | CC[C@@H]1COCCN1C[C@H]1CN[C@H](C)CN1CC(=O)N1c2cc(Cc3ccc(F)cc3)c(CO)nc2OC[C@@H]1C [Compound 51, 2-((2R,5R)-2-(((R)-3-ethylmorpholino)methyl)-5-methylpiperazin-1-yl)-1-((S)-7-(4-fluorobenzyl)-6-(hydroxymethyl)-2-methyl-2,3-dihydro-1H-pyrido[2,3-b][1,4]oxazin-1-yl)ethan-1-one]
10 | 0.2 | 0.5 | 14 | C[C@@H]1CN(CC(=O)N2c3cc(Cc4ccc(F)cc4)cnc3OC[C@@H]2C2CC2)[C@@H](CN2[C@H](C)COC[C@H]2C)CN1 [Compound 27, 1-((S)-2-cyclopropyl-7-(4-fluorobenzyl)-2,3-dihydro-1H-pyrido[2,3-b][1,4]oxazin-1-yl)-2-((2R,5R)-2-(((3R,5R)-3,5-dimethylmorpholino)methyl)-5-methylpiperazin-1-yl)ethan-1-one]
11 | 0.15 | 0.23 | 6.5 | CCC(=O)Nc1nc2c(cc1Cc1ccc(F)cc1)N(C(=O)CN1C[C@@H](C)NC[C@@H]1CN1[C@H](C)COC[C@H]1C)[C@@H](C)CO2 [Compound 117]
12 | 0.36 | 0.93 | 20 | C[C@@H]1CN(CC(=O)N2c3cc(Cc4ccc(F)cc4)cnc3OC[C@@H]2c2ccccc2)[C@@H](CN2[C@H](C)COC[C@H]2C)CN1 [Compound 44]
13 | 0.29 | 0.56 | 8.2 | COCCOCCNC(=O)c1nc2c(cc1Cc1ccc(F)cc1)N(C(=O)CN1C[C@@H](C)NC[C@@H]1CN1[C@H](C)COC[C@H]1C)[C@@H](C)CO2 [Example 67, (S)-1-(2-((2R,5R)-2-(((3R,5R)-3,5-dimethylmorpholino)methyl)-5-methylpiperazin-1-yl)acetyl)-7-(4-fluorobenzyl)-N-(2-(2-methoxyethoxy)ethyl)-2-methyl-2,3-dihydro-1H-pyrido[2,3-b][1,4]oxazine-6-carboxamide]
14 | 0.29 | 0.66 | 43 | CCOC[C@H]1COc2ncc(Cc3ccc(F)cc3)cc2N1C(=O)CN1C[C@@H](C)NC[C@@H]1CN1CCOC[C@H]1C [Compound 37, 1-((S)-2-(ethoxymethyl)-7-(4-fluorobenzyl)-2,3-dihydro-1H-pyrido[2,3-b][1,4]oxazin-1-yl)-2-((2R,5R)-5-methyl-2-(((R)-3-methylmorpholino)methyl)piperazin-1-yl)ethan-1-one]
15 | 0.13 | 0.18 | 6.9 | C[C@@H]1CN(CC(=O)N2c3cc(Cc4ccc(F)cc4)cnc3OC[C@@H]2COCc2ccccc2)[C@@H](CN2[C@H](C)COC[C@H]2C)CN1 [Compound 23, 1-((S)-2-((benzyloxy)methyl)-7-(4-fluorobenzyl)-2,3-dihydro-1H-pyrido[2,3-b][1,4]oxazin-1-yl)-2-((2R,5R)-2-(((3R,5R)-3,5-dimethylmorpholino)methyl)-5-methylpiperazin-1-yl)ethan-1-one]
16 | 0.35 | 0.42 | 7.6 | C[C@@H]1CN(CC(=O)N2c3cc(Cc4ccc(F)cc4)c(C(=O)N4CCOCC4)nc3OC[C@@H]2C)[C@@H](CN2[C@H](C)COC[C@H]2C)CN1 [Example 72, 2-((2R,5R)-2-(((3R,5R)-3,5-dimethylmorpholino)methyl)-5-methylpiperazin-1-yl)-1-((S)-7-(4-fluorobenzyl)-2-methyl-6-(morpholine-4-carbonyl)-2,3-dihydro-1H-pyrido[2,3-b][1,4]oxazin-1-yl)ethan-1-one]
17 | 1.02 | 1.5 | 24 | C[C@@H]1CN(CC(=O)N2CCOc3ncc(Cc4ccc(F)cc4)cc32)[C@@H](CN2C[C@@H]3C[C@H]2CO3)CN1 [Compound 13, 2-((2R,5R)-2-(((1S,45)-2-oxa-5-azabicyclo[2.2.1]heptan-5-yl)methyl)-5-methylpiperazin-1-yl)-1-(7-(4-fluorobenzyl)-2,3-dihydro-1H-pyrido[2,3-b][1,4]oxazin-1-yl)ethan-1-one]
18 | 0.82 | 1.2 | 7.7 | CC1COc2ncc(Cc3ccc(F)cc3)cc2N1C(=O)CN1C[C@@H](C)NC[C@@H]1CN1CCOC[C@H]1C (stereo partly drawn) [Compound 19, 1-(7-(4-fluorobenzyl)-2-methyl-2,3-dihydro-1H-pyrido[2,3-b][1,4]oxazin-1-yl)-2-((2R,5R)-5-methyl-2-(((R)-3-methylmorpholino)methyl)piperazin-1-yl)ethan-1-one]
19 | 0.13 | 0.34 | 7.5 | C[C@@H]1CN(CC(=O)N2c3cc(Cc4ccc(F)cc4F)c(CO)nc3OC[C@@H]2C)[C@@H](CN2[C@H](C)COC[C@H]2C)CN1 [Example 60, 1-((S)-7-(2,4-difluorobenzyl)-6-(hydroxymethyl)-2-methyl-2,3-dihydro-1H-pyrido[2,3-b][1,4]oxazin-1-yl)-2-((2R,5R)-2-(((3R,5R)-3,5-dimethylmorpholino)methyl)-5-methylpiperazin-1-yl)ethan-1-one]
20 | 0.72 | 1.25 | 30 | C[C@@H]1CN(CC(=O)N2c3cc(Cc4ccc(F)cc4)c(CO)nc3OC[C@@H]2C)[C@@H](CN2CCOC[C@H]2C(F)(F)F)CN1 [Compound 91A, 1-((S)-7-(4-fluorobenzyl)-6-(hydroxymethyl)-2-methyl-2,3-dihydro-1H-pyrido[2,3-b][1,4]oxazin-1-yl)-2-((2R,5R)-5-methyl-2-(((S)-3-(trifluoromethyl)morpholino)methyl)piperazin-1-yl)ethan-1-one]
21 | 0.23 | 0.41 | 4.4 | C[C@@H]1CN(CC(=O)N2c3cc(Cc4ccc(F)cc4)c(OCCO)nc3OC[C@@H]2C)[C@@H](CN2[C@H](C)COC[C@H]2C)CN1 [Compound 107]
